Common to all, as to assay: microbe, parasite or virus in culture
Assay type in all cases: functional, organism-based
Holding throughout (conditions): A/Guangzhou/GIRD/07/2009 (H1N1), MDCK

Test [1] relates to Influenza A virus.
In test [2] the test system is Influenza A virus. This is another data set of the same source.
Test [3] deals with Influenza A virus. This is another data set of the same source.
Test [4] relates to Influenza A virus. This is another data set of the same source.
The test system of test [5] is Influenza A virus. The source holds these as a separate data set.
Test [6] relates to Influenza A virus. This is another data set of the same source.
Test [7] has as its system Influenza A virus. This is another data set of the same source.
Test [8] relates to Influenza A virus. The source holds these as a separate data set.
The subject of test [9] is Influenza A virus. The source holds these as a separate data set.

Results on one compound are retold here after ChEMBL document CHEMBL4130623, “Discovery of Highly Potent Pinanamine-Based Inhibitors against Amantadine- and Oseltamivir-Resistant Influenza A Viruses” (J Med Chem, 2018).

Where only a bound is given, the exact number is not on record here.

Regarding `C[C@@H]1C2CC(C[C@H]1NCc1sccc1C1CC1)C2(C)C` (single isomer, unassigned), the EC50 (commonly the concentration that produces a half-maximal response) in the test with Influenza A virus [1] was over 43 µM; with Influenza A virus [2], 25.6 µM; with Influenza A virus [3], 0.34 µM; in the test on Influenza A virus [4], over 43 µM; in the test on Influenza A virus [5] it was 1.7 µM; in the test with Influenza A virus [6] it was 0.32 µM. Further, the EC50 is 8.7 µM in the test on Influenza A virus [7], over 43 µM with Influenza A virus [8] and 13.8 µM with Influenza A virus [9].
